Test results: US20040186082A1, “Enhanced phototherapy for the treatment of cancer and autoimmune disease” (priority 2003, published 2004)

System: psoriatic lesion on the leg
Test: Treatment of a psoriatic lesion with topical ointment and UVB irradiation (single patient)
Format: in vivo
Conditions: VES 20 mg/gram ointment applied 1 day after provitamin D + UVB (3 MED); within 12 hours
Experimental: Treatment of psoriasis with UVB irradiation. A patient with a ½ inch round psoriatic lesion on the leg was treated with provitamin D (35 mg/gram ointment) and irradiated with UVB (3 MED). […] The formally lesional tissue looked like normal healthy tissue.

Cc1c(C)c2c(c(C)c1OC(=O)CCC(=O)O)CC[C@@](C)(CCC[C@H](C)CCC[C@H](C)CCCC(C)C)O2 [Vitamin E succinate]
appearance of the treated tissue (induration, redness): the tissue was not indurated and the redness disappeared
